# From patent publication US6271234A, “1,4-disubstituted piperazines” (Recordati S.A., Chemical and Pharmaceutical Company, priority 1997, dated 2001)
# Assays:
# [1] = system: rhythmic bladder voiding contractions; assay: Effects on volume-induced rhythmic bladder voiding contractions in anaesthetized rats; type: in vivo, Female Sprague Dawley rats; settings: for Bladder Quiescence (disappearance time of contractions): mean ± S.E.
# Experimental: The animals were housed with free access to food and water and were maintained on a forced 12 h alternating light-dark cycle at 22-24° C. for at least one week, except during the experiment. […] The catheter was tied in place with a ligature around the external urethral orifice and was connected with conventional pressure transducers (Statham P23 ID/P23 XL). […] The bladder was then filled via the recording catheter by incremental volumes of warm (37° C.) saline until reflex bladder voiding contractions occurred (usually 0.8-1.5 ml).
# After cessation of the effect of drug injection, the height of the peaks was compared with that previously recorded after the intravenous administration of vehicle alone.
# [2] = biological target: T1, human 5-HT1A -serotoninergic receptor (Homo sapiens, UniProt P08908); assay: Radioreceptor binding to recombinant 5-HT1A receptors ([3H]8-OH-DPAT, HeLa cell membranes); settings: [3H]8-OH-DPAT 0.2-1 nM, 30 min at 30° C., read-out: Binding affinity for the 5-HT1A receptor, Ki
# T1 construct: expressed in transfected cells; host or cells: HeLa (human cell line), stably transfected; cell membranes
# T1 sequence (P08908 1-422): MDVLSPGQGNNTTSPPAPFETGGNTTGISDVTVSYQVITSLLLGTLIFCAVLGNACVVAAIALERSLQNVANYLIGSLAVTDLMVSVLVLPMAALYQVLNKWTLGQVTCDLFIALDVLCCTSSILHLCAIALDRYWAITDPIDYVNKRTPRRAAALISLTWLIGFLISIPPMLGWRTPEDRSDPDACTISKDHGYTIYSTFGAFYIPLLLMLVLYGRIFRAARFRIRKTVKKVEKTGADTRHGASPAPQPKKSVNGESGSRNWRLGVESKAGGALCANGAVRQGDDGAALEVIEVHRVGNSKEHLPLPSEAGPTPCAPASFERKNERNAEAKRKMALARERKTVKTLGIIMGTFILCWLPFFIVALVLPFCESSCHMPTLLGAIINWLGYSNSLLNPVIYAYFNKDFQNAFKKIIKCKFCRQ
# Experimental: HeLa cells were grown as monolayers in Dulbecco's modified Eagle's medium (DMEM), supplemented with 10% fetal calf serum and gentamicin ([…]), 5% CO2 at 37° C. Cells were detached from the growth flash at 95% confluence by a cell scraper and were lysed in ice-cold 5 mM Tris and 5 mM EDTA buffer (pH 7.4). Homogenates were centrifuged at 40000×g×20 min and pellets were resuspended in a small volume of ice-cold 5 mM Tris 5 and 5 mM EDTA buffer (pH 7.4) and immediately frozen and stored at -70° C. until use. On the day of experiment, cell membranes were resuspended in binding buffer: 50 mM Tris HCl (pH 7.4), 2.5 mM MgCl2, […] (Fargin et al., Nature 335, 358-360, 1988). Membranes were incubated in a final volume of 1 ml for 30 min at 30° C. with 0.2-1 nM [^3 H]8-OH-DPAT, in absence or presence of competing drugs; non-specific binding was determined in the presence of […]. The incubation was stopped by addition of ice-cold Tris-HCl buffer and rapid filtration through 0.2% polyethyleneimine pretreated Whatman GF/B or Schleicher & Schuell GF52 filters.
# [3] = system: rhythmic bladder voiding contractions; settings: urethane-anesthetized rats; background statement; cited from earlier work
# [4] = i.v., urethane-anesthetized rats
Compound,Bladder Quiescence (disappearance time of contractions) ([1]; 100 μg/kg i.v.),Bladder Quiescence (disappearance time of contractions) ([1]; 1000 μg/kg i.v.),Bladder Quiescence (disappearance time of contractions) ([1]; 3000 μg/kg i.v.),Ki [2],further results
"O=C(C1CCCCC1)N(CCN1CCN(c2ccccc2OC(F)(F)F)CC1)c1ccccn1 [Ex. 1, 1-[N-cyclohexylcarbonyl-N-(2-pyridyl)-2-aminoethyl]-4-(2-trifluoromethoxyphenyl)piperazine]",5.85 ± 1.87 min,16.25 ± 1.38 min,18.40 ± 4.12 min,0.86 nM,
"O=C(C1CCCCC1)N(CCN1CCN(c2cc(Cl)ccc2Cl)CC1)c1ccccn1 [Ex. 10, 1-[N-cyclohexylcarbonyl-N-(2-pyridyl)-2-aminoethyl]-4-(2,5-dichlorophenyl)piperazine]",,,,0.45 nM,
"O=C(C1CCCCC1)N(CCN1CCN(Cc2cc(Cl)ccc2Cl)CC1)c1ccccn1 [Ex. 14, 1-[N-cyclohexylcarbonyl-N-(2-pyridyl)-2-aminoethyl]-4-(2,5-dichlorobenzyl)piperazine]",10.12 ± 1.98 min,,,0.12 nM,Bladder Quiescence (disappearance time of contractions) ([1]; 30 μg/kg i.v.): 2.80 ± 1.31 min; Bladder Quiescence (disappearance time of contractions) ([1]; 300 μg/kg i.v.): 21.52 ± 4.66 min
"COc1cc(NS(C)(=O)=O)ccc1N1CCN(CCN(C(=O)C2CCCCC2)c2ccccn2)CC1 [Ex. 8, 1-[N-cyclohexylcarbonyl-N-(2-pyridyl)-2-aminoethyl]-4-(4-methanesulfonylamino-2-methoxyphenyl)piperazine]",2.03 ± 0.44 min,7.20 ± 1.07 min,14.20 ± 2.57 min,,
"COc1cc(NC(C)=O)ccc1N1CCN(CCN(C(=O)C2CCCCC2)c2ccccn2)CC1 [Ex. 7, 1-[N-cyclohexylcarbonyl-N-(2-pyridyl)-2-aminoethyl]-4-(4-acetylamino-2-methoxyphenyl)piperazine]",7.97 ± 1.78 min,20.63 ± 3.31 min,,8.15 nM,Bladder Quiescence (disappearance time of contractions) ([1]; 300 μg/kg i.v.): 8.65 ± 1.81 min
"COc1cc(N)ccc1N1CCN(CCN(C(=O)C2CCCCC2)c2ccccn2)CC1 [Ex. 6, 1-[N-cyclohexylcarbonyl-N-(2-pyridyl)-2-aminoethyl]-4-(4-amino-2-methoxyphenyl)piperazine]",9.82 ± 1.18 min,15.00 ± 3.11 min,,14.3 nM,Bladder Quiescence (disappearance time of contractions) ([1]; 10 μg/kg i.v.): 6.75 ± 1.66 min
"N#Cc1ccccc1N1CCN(CCN(C(=O)C2CCCCC2)c2ccccn2)CC1 [Ex. 4, 1-[N-cyclohexylcarbonyl-N-(2-pyridyl)-2-aminoethyl]-4-(2-cyanophenyl) piperazine]",,,,0.31 nM,
"O=C(C1CCCCC1)N(CCN1CCN(c2ccccc2OCC(F)(F)F)CC1)c1ccccn1 [Ex. 2, 1-[N-cyclohexylcarbonyl-N-(2-pyridyl)-2-aminoethyl]-4-[2-(2,2,2-trifluoroethoxy)phenyl]piperazine]",8.70 ± 2.88 min,27.28 ± 8.70 min,,0.89 nM,Bladder Quiescence (disappearance time of contractions) ([1]; 30 μg/kg i.v.): 3.00 ± 0.91 min
"O=C(C1CCCCC1)N(CCN1CCN(c2cc(Cl)ccc2OCC(F)(F)F)CC1)c1ccccn1 [Ex. 3, 1-[N-cyclohexylcarbonyl-N-(2-pyridyl)-2-aminoethyl]-4-[5-chloro-2-(2,2,2-trifluoroethoxy)phenyl]piperazine]",6.15 ± 1.19 min,10.13 ± 0.59 min,14.42 ± 2.36 min,1.51 nM,Bladder Quiescence (disappearance time of contractions) ([1]; 10 μg/kg i.v.): 3.15 ± 1.74 min
"Cc1c(-c2ccccc2)oc2c(C(=O)OCCN3CCCCC3)cccc2c1=O [Flavoxate, reference compound]",,3.04 ± 0.96 min,5.30 ± 1.00 min,,Bladder Quiescence (disappearance time of contractions) ([1]; 10000 μg/kg i.v.): 8.25 ± 1.90 min
"CCN(CC)CC#CCOC(=O)C(O)(c1ccccc1)C1CCCCC1 (centres unmarked) [Oxybutynin, reference compound]",0.92 ± 0.15 min,2.80 ± 0.60 min,6.27 ± 2.90 min,,"Bladder Quiescence (disappearance time of contractions) ([1]; 300 μg/kg i.v.): 2.87 ± 1.12 min; ED50 ([1]; Rattus norvegicus, iv, read-out: ED50 value (extrapolated dose inducing a 30% reduction of amplitude of the contractions in 50% of treated rats)): 240 mg/kg; Duration of bladder quiescence / cessation of bladder contractions (in words) [1, 4]: does not cause cessation of bladder contractions; Effect on amplitude of bladder contractions (in words) [1, 4]: only decreased the amplitude of the contractions in a dose-related manner; Effect on bladder voiding contractions in this model system (background, in words) [3]: lower the amplitude of the bladder contractions"
